Results taken from patent publication US7655688B2, “Fused cyclic succinimide compounds and analogs thereof, modulators of nuclear hormone receptor function” (Bristol-Myers Squibb Company, priority 2001, dated 2010).
Read-outs that look alike come from different tables or passages of the source.

Columns and labels:
AR [1] = molecular target: T1, AR (Rattus norvegicus, UniProt P15207); conditions: castrated rats
T1 sequence (P15207 1-902): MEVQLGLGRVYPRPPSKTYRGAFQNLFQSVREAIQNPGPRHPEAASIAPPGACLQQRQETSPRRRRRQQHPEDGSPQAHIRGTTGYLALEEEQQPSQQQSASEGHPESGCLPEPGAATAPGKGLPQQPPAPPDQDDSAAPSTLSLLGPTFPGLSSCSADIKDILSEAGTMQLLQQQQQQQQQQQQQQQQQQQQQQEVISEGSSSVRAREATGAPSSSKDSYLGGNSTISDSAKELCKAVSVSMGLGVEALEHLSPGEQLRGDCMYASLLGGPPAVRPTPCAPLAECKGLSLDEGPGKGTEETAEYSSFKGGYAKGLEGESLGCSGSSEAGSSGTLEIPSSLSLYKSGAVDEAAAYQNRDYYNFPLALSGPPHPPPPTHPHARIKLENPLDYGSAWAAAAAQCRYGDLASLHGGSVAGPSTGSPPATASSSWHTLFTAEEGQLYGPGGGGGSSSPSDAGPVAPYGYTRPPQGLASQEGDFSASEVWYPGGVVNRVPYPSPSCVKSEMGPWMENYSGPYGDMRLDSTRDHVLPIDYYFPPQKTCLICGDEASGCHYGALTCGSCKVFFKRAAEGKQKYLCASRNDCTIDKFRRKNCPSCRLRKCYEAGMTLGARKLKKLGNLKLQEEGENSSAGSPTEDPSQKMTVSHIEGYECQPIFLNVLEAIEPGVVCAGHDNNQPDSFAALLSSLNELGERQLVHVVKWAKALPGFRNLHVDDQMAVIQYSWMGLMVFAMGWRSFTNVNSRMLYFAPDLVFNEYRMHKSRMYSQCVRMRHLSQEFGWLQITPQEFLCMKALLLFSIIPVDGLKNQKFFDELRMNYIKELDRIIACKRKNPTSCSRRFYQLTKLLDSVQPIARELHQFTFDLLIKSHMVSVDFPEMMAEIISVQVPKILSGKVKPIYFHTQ
Source text: The activity of compounds of the present invention as AR agonists was investigated in an immature male rat model, a recognized test of anabolic effects in muscle and sustaining effects in sex organs for a given compound, as described in L. G. Hershberger et al., Proc. Soc. […] Nem.
The basis of this assay lies in the well-defined action of androgenic agents on the maintenance and growth of muscle tissues and sexual accessory organs in animals and man. […] J. Anat. […] Ital. Biol. Sper. […] II. […] Ital. Biol. Sper. […] As described above, the effects of androgens on maintenance of male sexual accessory organs, such as the prostate and seminal vesicles, is well described. Castration results in rapid involution and atrophy of the prostate and seminal vesicles. This effect can be reversed by exogenous addition of androgens. Since both the levator ani muscle and the male sex organs are the tissues most responsive to the effects of androgenic agents, this model is used to determine the androgen dependent reversal of atrophy in the levator ani muscle and the sex accessory organs in immature castrated rats. Sexually mature rats (200-250 g, 6-8 weeks-old, Sprague-Dawley, Harlan) were acquired castrated from the vendor (Taconic). The rats were divided into groups and treated daily for 7 to 14 days with one of the following: • 1. Control vehicle • 2. […]

AR [2] = molecular target: T1, AR
[3] = system: GR induced AP-1 transrepression; test: In vitro assay to measure GR induced AP-1 transrepression (luciferase reporter, A549 cells); assay type: cell-based; conditions: concentration of ≦10 μM; 10 ng/ml PMA; typical value
Description: The AP-1 assay is a cell based luciferase reporter assay. A549 cells, which contain endogenous glucocorticoid receptor, were stably transfected with an AP-1 DNA binding site attached to the luciferase gene. Cells are then grown in RPMI+10% fetal calf serum (charcoal-treated)+Penicillin/Streptomycin with 0.5 mg/ml geneticin. Cells are plated the day before the assay at approximately 40000 cells/well. On assay day, the media is removed by aspiration and 20 μl assay buffer (RPMI without phenol red+10% FCS (charcoal-treated)+Pen/Strep) is added to each well. At this point either 20 μl assay buffer (control experiments), the compounds of the present invention (“test compounds”) (dissolved in DMSO and added at varying concentrations) or dexamethasome (100 nM in DMSO, positive control) are added to each well. The plates are then pre-incubated for 15 minutes at 37° C., followed by stimulation of the cells with 10 ng/ml PMA. The plates are then incubated for 7 hrs at 37° C. after which 40 μl luciferase substrate reagent is added to each well. Activity is measured by analysis in a luminometer as compared to control experiments treated with buffer or dexamethasome. […] The control, dexamethasone, at a concentration of ≦10 μM typically suppresses activity by 65%.

SMILES	EC50 (increase in organ weight) (AR [1]; dosing for 3 days) [mg]	potency relative to free T (AR [1]; organ weight)	ED80 (organ weight increase) (AR [2]; immature castrated rat model) [mg]	EC50 (increase in organ weight) (AR [2]; immature castrated rats, dosing for 3 days) [mg]	potency relative to free T (AR [2]; immature castrated rats, organ weight)	suppression of activity (% inhibition of the reporter system vs buffer control with PMA alone) [3] [%]
CCC(=O)O[C@H]1CC[C@H]2[C@@H]3CCC4=CC(=O)CC[C@]4(C)[C@H]3CC[C@]12C [TP, Testosterone Propionate]	~0.03	10-30 fold	0.1	~0.03	10-30 fold	–
C[C@@H]1C[C@H]2[C@@H]3CCC4=CC(=O)C=C[C@]4(C)[C@@]3(F)[C@@H](O)C[C@]2(C)[C@@]1(O)C(=O)CO [dexamethasone]	–	–	–	–	–	65
